# Test results reported in US20200054671A1, “TREATMENT OF ANXIETY DISORDER AND AUGMENTATION OF ANTI-ANXIETY INTERVENTIONS BY ADMINISTRATION OF NOBLE GAS CONTAINING MIXTURES” (NOBILIS THERAPEUTICS, INC., priority 2016, published 2020).
# Key:
# Assay type in all cases: in vivo, human
# [1] = system: patients with panic disorder; experiment: Hospital Anxiety and Depression Scale, anxiety subscale (HADS_T), open clinical trial of xenon inhalation; details: for HADS-T, V6 − V1, mean paired difference: after 6 sessions vs baseline; for HADS_T total score: after 3 sessions (V3)
# Description: (§1) This investigator-initiated study was performed under a prospective clinical trial protocol approved by the Institute of Mental Health and Addictology, which is accredited by the Ministry of Health of the Russian Federation to conduct clinical trials (#57689). Study conduct was in compliance with all ethical standards and good clinical practice. Ninety outpatients with a diagnosis of “panic disorder» (F41.0) according to ICD-10 were enrolled through the Institute of Mental Health and Addictology. Five patients dropped out of the study due to minor side effects, predominantly lightheadedness and headaches, and 4 patients dropped out of the study for unspecified reasons. As the intention to treat analysis was not utilized due to the open label design of the study, 81 patients with PD (49 women and 32 men), mean age was 35.2 years (range […]) were studied. Patients were randomized into 2 groups: with “pure” PD (group 1) and “comorbid” PD, when it was co-diagnosed with other mental illnesses (group 2). All patients with isolated PD (Group 1, n=42) received monotherapy with xenon at the aforementioned schedule, while the majority of patients (94.9%) with PD and comorbid conditions, which were predominantly depression (group 2, n=39), in addition to xenon administration continued treatment for comorbid psychiatric disorders, which mainly consisted of antidepressants (SSRIs and SNRIs). In these patients, the reason for xenon treatment was the increase in the frequency and severity of panic attacks despite ongoing treatment with stable pharmacotherapy of at least 3 to 6 months' duration.
# (§2) Administration of xenon was performed through inhalation of xenon-oxygen mixtures that were escalated from 15%/85% to 30%/70% with titration increments of 5% per session. Each patient in the study underwent between 6 and 7 treatments with xenon-oxygen mixture. The first three sessions were carried out daily and from session 4 onward—every other day. The selected dosing regime and the composition of the gas mixtures were based on the historical evidence of safety of subanesthetic use of xenon in imaging.
# (§3) Medical grade xenon (“medksenon»®, 99.9999%, manufacturer: Atommedcenter, Moscow, Russia) and medical grade oxygen in separate containers were admixed. Mixing and administration of gases in preset concentration and volume was accomplished with the use of the medical device MAGi-AMTS1, which enables the operator to adjust the concentration of xenon in the gas mixture, and which contains the electronic flow meter with a software module that allows for such adjustments. Administration of xenon-oxygen mixture to the patient was carried out via a face mask. Patients were asked to slowly inhale, holding breath for 5 to 10 seconds; exhale into the loop and after 35-40 seconds exhale outside the contour and breath in the new portion of gas mixture. Xenon inhalation lasted from 2.5 to 4 minutes, and the xenon consumption was capped at 3.0 liters per procedure. The patients were assessed subjectively by the provider, while the vital signs (pulse, blood pressure, oxygen saturation) were continuously monitored.
# Patients were evaluated after each xenon inhalation and at 30 and 180 days after completion of treatment. To this end, we employed clinical psychopathological and clinical catamnestic methods, and psychometric scales that are widely used internationally to assess the treatment of mental disorders. […]
# [2] = system: patients with panic disorder; experiment: Clinical Global Impression Scale, severity of the disease subscale (CGI-S)
# Description: as §1, §2, §3
# (§4) Patients were evaluated after each xenon inhalation and at 30 and 180 days after completion of treatment. To this end, we employed clinical psychopathological and clinical catamnestic methods, and psychometric scales that are widely used internationally to assess the treatment of mental disorders. Scale Assessment, Zung Self-Rating Anxiety Scale (SAS) was performed prior to starting therapy (V1), and at 1 and 6 months after treatment. According to this scale, SAS index of less than 45 points corresponds to the normal value, 45-59—to mild-to-moderate degree of anxiety, 60-74—to high degree of anxiety, more than 75—to an extremely high-level of anxiety. […]
# [3] = system: patients with panic disorder; experiment: Zung Self-Rating Anxiety Scale (SAS)
# Description: as §1, §2, §3, §4
# [4] = system: patients with panic disorder; experiment: Tolerability of xenon therapy in the clinical trial; details: mainly headache and dizziness
# Description: This investigator-initiated study was performed under a prospective clinical trial protocol approved by the Institute of Mental Health and Addictology, which is accredited by the Ministry of Health of the Russian Federation to conduct clinical trials (#57689). Study conduct was in compliance with all ethical standards and good clinical practice. Ninety outpatients with a diagnosis of “panic disorder» (F41.0) according to ICD-10 were enrolled through the Institute of Mental Health and Addictology. Five patients dropped out of the study due to minor side effects, predominantly lightheadedness and headaches, and 4 patients dropped out of the study for unspecified reasons. As the intention to treat analysis was not utilized due to the open label design of the study, 81 patients with PD (49 women and 32 men), mean age was 35.2 years (range […]) were studied. Patients were randomized into 2 groups: with “pure” PD (group 1) and “comorbid” PD, when it was co-diagnosed with other mental illnesses (group 2). […]
# Medical grade xenon (“medksenon»®, 99.9999%, manufacturer: Atommedcenter, Moscow, Russia) and medical grade oxygen in separate containers were admixed. […] The patients were assessed subjectively by the provider, while the vital signs (pulse, blood pressure, oxygen saturation) were continuously monitored.
# [5] = «Pure PD» (n = 42), total given 39
smiles,measurement,setting,value
[Xe] [xenon],"HADS-T, V6 − V1, mean paired difference","[1]; Group 1 («pure» PD, n=42, xenon monotherapy)",−11.214
same,HADS_T total score,[1]; Group 1,13.3
same,"HADS-T, V6 − V1, mean paired difference","[1]; Group 2 («comorbid» PD, n=39)",−11.436
same,HADS_T total score,[1]; Group 2,13.3
same,HADS_T overall score category,"[1]; both groups, end of treatment (V6)",norm
same,"CGI-S, V2: Moderately expressed disease, share of patients","[2]; Comorbid PD (n = 39), total 42",2.4%
same,"CGI-S, V2: Serious disease, share of patients","[2]; Comorbid PD (n = 39), total 42",4.8%
same,"CGI-S, V2: Significantly expressed disease, share of patients","[2]; Comorbid PD (n = 39), total 42",92.9%
same,"CGI-S, V3: Significantly expressed disease, share of patients","[2]; Comorbid PD (n = 39), total 42",88.1%
same,"CGI-S, V4: Moderately expressed disease, share of patients","[2]; Comorbid PD (n = 39), total 42",52.4%
same,"CGI-S, V4: Significantly expressed disease, share of patients","[2]; Comorbid PD (n = 39), total 42",.0%
same,"CGI-S, V4: Weakly expressed disease, share of patients","[2]; Comorbid PD (n = 39), total 42",47.6%
same,"CGI-S, V5: Borderline state, share of patients","[2]; Comorbid PD (n = 39), total 42",14.3%
same,"CGI-S, V5: Moderately expressed disease, share of patients","[2]; Comorbid PD (n = 39), total 42",.0%
same,"CGI-S, V5: Significantly expressed disease, share of patients","[2]; Comorbid PD (n = 39), total 42",.0%
same,"CGI-S, V5: Weakly expressed disease, share of patients","[2]; Comorbid PD (n = 39), total 42",85.7%
same,"CGI-S, V6: Normal state, share of patients","[2]; Comorbid PD (n = 39), total 42",11.9%
same,"CGI-S, V6: Weakly expressed disease, share of patients","[2]; Comorbid PD (n = 39), total 42",.0%
same,"CGI-S, V3: Moderately expressed disease, share of patients","[2]; Comorbid PD (n = 39), total 42, after the third procedure",11.9%
same,"CGI-S, V6: Borderline state, share of patients","[2]; Comorbid PD (n = 39), total 42, upon completion of xenon treatments",88.1%
same,"CGI-S, V2: Moderately expressed disease, share of patients",[2]; Total (n = 81),24.7%
same,"CGI-S, V2: Serious disease, share of patients",[2]; Total (n = 81),2.5%
same,"CGI-S, V2: Significantly expressed disease, share of patients",[2]; Total (n = 81),72.8%
same,"CGI-S, V3: Moderately expressed disease, share of patients",[2]; Total (n = 81),29.6%
same,"CGI-S, V3: Significantly expressed disease, share of patients",[2]; Total (n = 81),70.4%
same,"CGI-S, V4: Moderately expressed disease, share of patients",[2]; Total (n = 81),51.9%
same,"CGI-S, V4: Significantly expressed disease, share of patients",[2]; Total (n = 81),23.5%
same,"CGI-S, V4: Weakly expressed disease, share of patients",[2]; Total (n = 81),24.7%
same,"CGI-S, V5: Borderline state, share of patients",[2]; Total (n = 81),7.4%
same,"CGI-S, V5: Moderately expressed disease, share of patients",[2]; Total (n = 81),45.7%
same,"CGI-S, V5: Significantly expressed disease, share of patients",[2]; Total (n = 81),1.2%
same,"CGI-S, V5: Weakly expressed disease, share of patients",[2]; Total (n = 81),45.7%
same,"CGI-S, V6: Borderline state, share of patients",[2]; Total (n = 81),85.2%
same,"CGI-S, V6: Normal state, share of patients",[2]; Total (n = 81),6.2%
same,"CGI-S, V6: Weakly expressed disease, share of patients",[2]; Total (n = 81),8.6%
same,"CGI-S, V2: Moderately expressed disease, share of patients",[2]; [5],48.7%
same,"CGI-S, V2: Serious disease, share of patients",[2]; [5],.0%
same,"CGI-S, V2: Significantly expressed disease, share of patients",[2]; [5],51.3%
same,"CGI-S, V3: Significantly expressed disease, share of patients",[2]; [5],51.3%
same,"CGI-S, V4: Moderately expressed disease, share of patients",[2]; [5],51.3%
same,"CGI-S, V4: Significantly expressed disease, share of patients",[2]; [5],48.7%
same,"CGI-S, V4: Weakly expressed disease, share of patients",[2]; [5],.0%
same,"CGI-S, V5: Borderline state, share of patients",[2]; [5],.0%
same,"CGI-S, V5: Moderately expressed disease, share of patients",[2]; [5],94.9%
same,"CGI-S, V5: Significantly expressed disease, share of patients",[2]; [5],2.6%
same,"CGI-S, V5: Weakly expressed disease, share of patients",[2]; [5],2.6%
same,"CGI-S, V6: Normal state, share of patients",[2]; [5],.0%
same,"CGI-S, V6: Weakly expressed disease, share of patients",[2]; [5],17.9%
same,"CGI-S, V3: Moderately expressed disease, share of patients","[2]; «Pure PD» (n = 42), total given 39, after the third procedure",48.7%
same,"CGI-S, V6: Borderline state, share of patients","[2]; «Pure PD» (n = 42), total given 39, upon completion of xenon treatments",82.1%
same,"Zung SAS after 1 month − V1, mean paired difference",[3]; Group 1 (n=42),−36.131
same,"Zung SAS after 6 months − V1, mean paired difference",[3]; Group 1 (n=42),−38.214
same,SAS total score,"[3]; Group 1, one month after treatment",36.5 points
same,SAS total score,"[3]; Group 1, study follow up (6 months)",34.5
same,"Zung SAS after 1 month − V1, mean paired difference",[3]; Group 2 (n=39),−17.308
same,"Zung SAS after 6 months − V1, mean paired difference",[3]; Group 2 (n=39),−16.154
same,SAS total score,"[3]; Group 2, one month after treatment",46.8 points
same,SAS total score,"[3]; Group 2, study follow up (6 months)",47.9
same,patients dropping out from the study due to side effects,[4]; 5 patients,5.8%
same,tolerability of xenon therapy,"[4]; side effects, were rare",generally well tolerated
